Experiments:
human M3 receptor = human M3 receptor (Homo sapiens (Human), UniProt P20309); experiment: Radioligand (tritiated N-methylscopolamine) binding assay, M3; conditions: CHO cell membranes expressing human M3; 1.5 nM tritiated N-methylscopolamine; 90 min, 37° C.; read-out: Ki against M3 receptor (Table 21, M3)
Outline: (§1)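 Test compound (12 concentrations, 10 μM to […]), 1.5 nM radioligand and CHO receptor membranes were co-incubated at 37 °C for 90 minutes in 50 mM HEPES buffer with 100 mM NaCl, 5 mM MgCl2 and 1 mM EDTA, pH 7.4. Membranes were then harvested onto polyethylenimine-pretreated filters and radioactivity was counted to determine Ki.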

human M5 receptor = human M5 receptor (Homo sapiens (Human), UniProt P08912); experiment: Radioligand (tritiated N-methylscopolamine) binding assay, M5; conditions: CHO cell membranes expressing human M5; 1.5 nM tritiated N-methylscopolamine; 90 min, 37° C.; read-out: Ki against M5 receptor (Table 21, M5)
Sequence of human M5 receptor (P08912 whole entry): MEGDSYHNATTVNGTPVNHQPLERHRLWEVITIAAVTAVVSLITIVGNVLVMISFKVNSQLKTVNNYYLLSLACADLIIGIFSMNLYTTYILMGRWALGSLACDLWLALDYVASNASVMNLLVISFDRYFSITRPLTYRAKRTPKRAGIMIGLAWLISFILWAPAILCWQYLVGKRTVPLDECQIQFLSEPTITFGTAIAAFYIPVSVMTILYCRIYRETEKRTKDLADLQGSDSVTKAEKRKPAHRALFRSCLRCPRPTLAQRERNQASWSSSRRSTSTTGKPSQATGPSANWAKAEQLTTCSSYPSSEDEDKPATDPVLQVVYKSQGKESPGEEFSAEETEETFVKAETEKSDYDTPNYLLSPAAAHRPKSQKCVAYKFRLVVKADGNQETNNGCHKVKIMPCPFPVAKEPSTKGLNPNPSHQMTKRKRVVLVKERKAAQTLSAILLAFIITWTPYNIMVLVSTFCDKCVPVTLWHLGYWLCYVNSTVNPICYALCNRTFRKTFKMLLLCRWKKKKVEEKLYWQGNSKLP
Outline: as §1

human M2 receptor = human M2 receptor (Homo sapiens (Human), UniProt P08172); experiment: Radioligand (tritiated N-methylscopolamine) binding assay, M2; conditions: CHO cell membranes expressing human M2; 1.5 nM tritiated N-methylscopolamine; 90 min, 37° C.; read-out: Ki against M2 receptor (Table 21, M2)
Sequence of human M2 receptor (P08172 whole entry): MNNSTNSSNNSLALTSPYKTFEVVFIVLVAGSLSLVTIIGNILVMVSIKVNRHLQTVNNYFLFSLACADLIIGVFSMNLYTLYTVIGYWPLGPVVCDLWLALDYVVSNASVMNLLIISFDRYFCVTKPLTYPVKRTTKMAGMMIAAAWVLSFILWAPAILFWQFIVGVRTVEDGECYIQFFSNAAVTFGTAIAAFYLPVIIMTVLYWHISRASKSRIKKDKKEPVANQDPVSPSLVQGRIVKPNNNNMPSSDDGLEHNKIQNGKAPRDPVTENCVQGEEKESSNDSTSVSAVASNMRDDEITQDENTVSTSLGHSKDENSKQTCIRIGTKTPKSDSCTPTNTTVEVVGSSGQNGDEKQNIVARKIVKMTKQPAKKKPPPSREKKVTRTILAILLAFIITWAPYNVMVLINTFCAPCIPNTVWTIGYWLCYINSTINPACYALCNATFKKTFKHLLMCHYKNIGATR
Outline: as §1

human M1 receptor = human M1 receptor (Homo sapiens (Human), UniProt P11229); experiment: Radioligand (tritiated N-methylscopolamine) binding assay, M1; conditions: CHO cell membranes expressing human M1; 1.5 nM tritiated N-methylscopolamine; 90 min, 37° C.; read-out: Ki against M1 receptor (Table 21, M1)
Sequence of human M1 receptor (P11229 whole entry): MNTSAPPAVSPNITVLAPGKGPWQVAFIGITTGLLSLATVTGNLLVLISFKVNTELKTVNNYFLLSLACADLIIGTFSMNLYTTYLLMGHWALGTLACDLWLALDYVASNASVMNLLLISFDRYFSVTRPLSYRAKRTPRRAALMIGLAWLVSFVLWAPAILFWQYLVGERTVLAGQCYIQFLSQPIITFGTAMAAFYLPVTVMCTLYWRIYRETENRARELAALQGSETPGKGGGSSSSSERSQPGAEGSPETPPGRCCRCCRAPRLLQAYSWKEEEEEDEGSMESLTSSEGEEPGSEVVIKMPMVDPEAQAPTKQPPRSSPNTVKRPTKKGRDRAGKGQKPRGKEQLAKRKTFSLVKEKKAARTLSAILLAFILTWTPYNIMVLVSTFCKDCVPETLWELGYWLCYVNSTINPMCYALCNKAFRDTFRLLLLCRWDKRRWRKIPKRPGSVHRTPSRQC
Outline: as §1

human M4 receptor = human M4 receptor (Homo sapiens (Human), UniProt P08173); experiment: Radioligand (tritiated N-methylscopolamine) binding assay, M4; conditions: Ki against the M4 receptor; membranes from CHO cells expressing human M4; tritiated N-methylscopolamine 1.5 nM; read-out: Ki
Sequence of human M4 receptor (P08173 whole entry): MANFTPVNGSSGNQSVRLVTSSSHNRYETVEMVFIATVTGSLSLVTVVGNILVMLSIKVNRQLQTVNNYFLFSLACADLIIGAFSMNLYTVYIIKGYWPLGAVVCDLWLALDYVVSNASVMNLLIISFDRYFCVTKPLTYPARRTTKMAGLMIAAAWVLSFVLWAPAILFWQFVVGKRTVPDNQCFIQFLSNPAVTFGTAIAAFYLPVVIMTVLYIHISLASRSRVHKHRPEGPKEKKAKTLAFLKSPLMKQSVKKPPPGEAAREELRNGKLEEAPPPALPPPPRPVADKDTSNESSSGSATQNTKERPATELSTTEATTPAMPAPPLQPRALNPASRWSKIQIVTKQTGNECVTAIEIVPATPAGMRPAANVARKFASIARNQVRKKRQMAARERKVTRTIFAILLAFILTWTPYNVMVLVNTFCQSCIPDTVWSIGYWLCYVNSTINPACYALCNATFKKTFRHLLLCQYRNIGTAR
Outline: as §1

Sequence of human M3 receptor (P20309 whole entry): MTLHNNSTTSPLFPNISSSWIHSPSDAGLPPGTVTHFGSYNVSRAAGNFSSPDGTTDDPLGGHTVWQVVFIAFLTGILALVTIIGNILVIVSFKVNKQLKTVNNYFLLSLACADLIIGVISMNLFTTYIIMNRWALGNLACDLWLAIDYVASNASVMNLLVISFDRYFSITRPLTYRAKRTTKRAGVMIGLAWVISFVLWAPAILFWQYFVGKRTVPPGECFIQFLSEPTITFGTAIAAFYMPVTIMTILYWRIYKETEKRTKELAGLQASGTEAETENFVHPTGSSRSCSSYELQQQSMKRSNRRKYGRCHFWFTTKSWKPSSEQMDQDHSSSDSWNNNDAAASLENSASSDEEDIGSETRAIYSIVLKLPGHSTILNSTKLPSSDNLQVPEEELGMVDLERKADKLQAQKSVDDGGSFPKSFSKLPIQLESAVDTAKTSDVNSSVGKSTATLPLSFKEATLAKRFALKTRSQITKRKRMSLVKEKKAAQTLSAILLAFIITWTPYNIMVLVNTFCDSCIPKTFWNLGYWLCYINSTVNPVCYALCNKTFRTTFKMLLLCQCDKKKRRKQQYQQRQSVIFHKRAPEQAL

Row | Ki (human M3 receptor) [nM] | Ki (human M5 receptor) [nM] | Ki (human M2 receptor) [nM] | Ki (human M1 receptor) [nM] | Ki (human M4 receptor) [nM] | Structure (SMILES)
1 | > 1000 | > 1000 | 100 to 1000 | 100 to 1000 | < 10 | O=C(NCCC1CCN(Cc2ccccc2)CC1)C1CCN(c2ccc(F)c(OC(F)(F)F)c2)CC1 [10-11, N-[2-(1-benzylpiperidin-4-yl)ethyl]-1-[4-fluoro-3-(trifluoromethoxy)phenyl]piperidine-4-carboxamide]
2 | > 1000 | > 1000 | 100 to 1000 | > 1000 | < 10 | C[C@@H]1CN(c2ccc(OC(F)(F)F)c(C#N)c2)CCN1C(=O)NCCC1(O)CCN(Cc2ccccc2)CC1 [3-5, (2R)-N-[2-(1-benzyl-4-hydroxypiperidin-4-yl)ethyl]-4-[3-cyano-4-(trifluoromethoxy)phenyl]-2-methylpiperazine-1-carboxamide]
3 | 100 to 1000 | 100 to 1000 | < 10 | 100 to 1000 | < 10 | C[C@@H]1CN(c2cnc(C(F)(F)F)cn2)C[C@H](C)N1C(=O)NCCC1CCN(Cc2ccccc2)CC1 [22-23]
4 | > 1000 | > 1000 | 10 to 100 | 100 to 1000 | < 10 | COc1ccc(N2C[C@@H](C)N(C(=O)NCCC3CCN(Cc4ccccc4)CC3)[C@@H](C)C2)cc1C#N [22-24]
5 | > 1000 | > 1000 | 10 to 100 | 100 to 1000 | < 10 | C[C@@H]1CN(c2ccc(C(F)(F)F)cn2)CCN1C(=O)NCCC1CCN(Cc2ccccc2)CC1 [3-14, (2R)-N-[2-(1-benzylpiperidin-4-yl)ethyl]-2-methyl-4-[5-(trifluoromethyl)pyridin-2-yl]piperazine-1-carboxamide]
6 | > 1000 | > 1000 | 100 to 1000 | > 1000 | < 10 | C[C@@H]1CN(c2ccc(C#N)cc2F)C[C@H](C)N1C(=O)NCCC1CCN(Cc2ccccc2)CC1 [22-3]
7 | > 1000 | > 1000 | 10 to 100 | 100 to 1000 | < 10 | C[C@@H]1CN(c2ncc(C(F)(F)F)c(N)n2)C[C@@H](C)N1C(=O)NCCC1CCN(Cc2ccccc2)CC1 [26-1, (2R,6R)-4-[4-amino-5-(trifluoromethyl)pyrimidin-2-yl]-N-[2-(1-benzylpiperidin-4-yl)ethyl]-2,6-dimethylpiperazine-1-carboxamide]
8 | > 1000 | > 1000 | 100 to 1000 | 100 to 1000 | < 10 | C[C@@H]1CN(c2ncc(C(F)(F)F)c(N)n2)C[C@H](C)N1C(=O)NCCC1CCN(Cc2ccccc2)CC1 [5-28, (2R,6S)-4-[4-amino-5-(trifluoromethyl)pyrimidin-2-yl]-N-[2-(1-benzylpiperidin-4-yl)ethyl]-2,6-dimethylpiperazine-1-carboxamide]
9 | > 1000 | > 1000 | 10 to 100 | 100 to 1000 | < 10 | C[C@@H]1CN(c2ncc(Cl)cn2)CCN1C(=O)NCCC1CCN(Cc2ccccc2)CC1 [5-22, (2R)-N-[2-(1-benzylpiperidin-4-yl)ethyl]-4-(5-chloropyrimidin-2-yl)-2-methylpiperazine-1-carboxamide]
10 | > 1000 | > 1000 | > 1000 | > 1000 | < 10 | C[C@@H]1CN(c2ccc(F)c(C#N)c2)CCN1C(=O)NC[C@H](O)C1CCN(Cc2ccccc2)CC1 [7-12, (2R)-N-[(2R)-2-(1-benzylpiperidin-4-yl)-2-hydroxyethyl]-4-(3-cyano-4-fluorophenyl)-2-methylpiperazine-1-carboxamide]
11 | > 1000 | > 1000 | 10 to 100 | > 1000 | < 10 | Cc1c(C(=O)NCCC2CCN(Cc3ccccc3)CC2)cnc2cc(-c3ccc(F)cc3F)nn12 [18-1, N-[2-(1-benzylpiperidin-4-yl)ethyl]-2-(2,4-difluorophenyl)-7-methyl-pyrazolo[1,5-a]pyrimidine-6-carboxamide]
12 | > 1000 | > 1000 | 100 to 1000 | 100 to 1000 | < 10 | C[C@@H]1CN(c2nc(Cl)cc(C#N)n2)CCN1C(=O)NCCC1CCN(Cc2ccccc2)CC1 [5-5, (2R)-N-[2-(1-benzylpiperidin-4-yl)ethyl]-4-(4-chloro-6-cyanopyrimidin-2-yl)-2-methylpiperazine-1-carboxamide]
13 | > 1000 | > 1000 | 10 to 100 | 100 to 1000 | < 10 | C[C@@H]1CN(c2ccc(C(F)(F)F)cc2)CCN1C(=O)NCCC1CCN(Cc2ccccc2)CC1 [4-5, (2R)-N-[2-(1-benzylpiperidin-4-yl)ethyl]-2-methyl-4-[4-(trifluoromethyl)phenyl]piperazine-1-carboxamide]
14 | 10 to 100 | 100 to 1000 | < 10 | 10 to 100 | < 10 | C[C@@H]1CN(c2ncc(Br)cn2)CCN1C(=O)NCCC1CCN(Cc2ccccc2)CC1 [5-31, (2R)-N-[2-(1-benzylpiperidin-4-yl)ethyl]-4-(5-bromopyrimidin-2-yl)-2-methylpiperazine-1-carboxamide]
15 | > 1000 | > 1000 | 100 to 1000 | 100 to 1000 | < 10 | Cc1c(C(=O)NCCC2CCN(Cc3ccccc3)CC2)cnc2cc(-c3ccc(F)cc3)nn12 [18-4]
16 | > 1000 | > 1000 | 100 to 1000 | > 1000 | < 10 | C[C@@H]1CN(C(=O)NCCC2CCN(Cc3ccccc3)CC2)CCN1c1ccc(OC(F)(F)F)cc1 [4-18, (3R)-N-[2-(1-benzylpiperidin-4-yl)ethyl]-3-methyl-4-[4-(trifluoromethoxy)phenyl]piperazine-1-carboxamide]
17 | 100 to 1000 | > 1000 | 10 to 100 | 100 to 1000 | < 10 | Cc1cc(N2CCC(C(=O)NCCC3CCN(Cc4ccccc4)CC3)CC2)ccc1OC(F)(F)F [10-56, N-[2-(1-benzylpiperidin-4-yl)ethyl]-1-[3-methyl-4-(trifluoromethoxy)phenyl]piperidine-4-carboxamide]
18 | > 1000 | > 1000 | 100 to 1000 | > 1000 | < 10 | C[C@@H]1CN(c2ccc(OC(F)(F)F)c(C#N)c2)CCN1C(=O)NC[C@@H](O)C1CCN(Cc2ccccc2)CC1 [3-21, (2R)-N-[(2S)-2-(1-benzylpiperidin-4-yl)-2-hydroxyethyl]-4-[3-cyano-4-(trifluoromethoxy)phenyl]-2-methylpiperazine-1-carboxamide]
19 | 100 to 1000 | 100 to 1000 | 10 to 100 | 100 to 1000 | < 10 | C[C@H]1CN(c2ccc(OC(F)(F)F)c(F)c2)CCN1C(=O)NCCC1CCN(Cc2ccccc2)CC1 [4-53, (2S)-N-[2-(1-benzylpiperidin-4-yl)ethyl]-4-[3-fluoro-4-(trifluoromethoxy)phenyl]-2-methylpiperazine-1-carboxamide]
20 | > 1000 | > 1000 | 100 to 1000 | > 1000 | < 10 | O=C(NCCC1CCN(Cc2ccccc2)CC1)N1CCN(c2ccc(C(F)(F)F)cc2)CC1 [4-76, N-[2-(1-benzylpiperidin-4-yl)ethyl]-4-[4-(trifluoromethyl)phenyl]piperazine-1-carboxamide]

From patent US11033539B2, “Compounds of formulas (VII), (VIII), (IX), (XI), (XII), (XIII), and (XIV) as muscarinic receptor 4(M4) antagonists for treating neurological diseases” (Neurocrine Biosciences, Inc., priority 2015, dated 2021)
